Reference: patent publication US20050048508A1, “Trehalose receptor and method for detecting trehalose with the same” (KABUSHIKI KAISHA HAYASHIBARA SEIBUTSU KAGAKU KENKYUJO, priority 2002, published 2005)

Molecular target: T1, T1R1 and T1R3 with G protein α-subunits (α15 and α16/Z chimeric protein) (Mus musculus, UniProt Q925D8+Q99PG6, I706N)
T1 construct: expressed in transfected cells; host or cells: 293 cells, RCB 1637 (human embryonic kidney)
T1 sequence (Q99PG6 20-842 L120P/N244D/D281A/N309Y/P311T/S314P/H418Y): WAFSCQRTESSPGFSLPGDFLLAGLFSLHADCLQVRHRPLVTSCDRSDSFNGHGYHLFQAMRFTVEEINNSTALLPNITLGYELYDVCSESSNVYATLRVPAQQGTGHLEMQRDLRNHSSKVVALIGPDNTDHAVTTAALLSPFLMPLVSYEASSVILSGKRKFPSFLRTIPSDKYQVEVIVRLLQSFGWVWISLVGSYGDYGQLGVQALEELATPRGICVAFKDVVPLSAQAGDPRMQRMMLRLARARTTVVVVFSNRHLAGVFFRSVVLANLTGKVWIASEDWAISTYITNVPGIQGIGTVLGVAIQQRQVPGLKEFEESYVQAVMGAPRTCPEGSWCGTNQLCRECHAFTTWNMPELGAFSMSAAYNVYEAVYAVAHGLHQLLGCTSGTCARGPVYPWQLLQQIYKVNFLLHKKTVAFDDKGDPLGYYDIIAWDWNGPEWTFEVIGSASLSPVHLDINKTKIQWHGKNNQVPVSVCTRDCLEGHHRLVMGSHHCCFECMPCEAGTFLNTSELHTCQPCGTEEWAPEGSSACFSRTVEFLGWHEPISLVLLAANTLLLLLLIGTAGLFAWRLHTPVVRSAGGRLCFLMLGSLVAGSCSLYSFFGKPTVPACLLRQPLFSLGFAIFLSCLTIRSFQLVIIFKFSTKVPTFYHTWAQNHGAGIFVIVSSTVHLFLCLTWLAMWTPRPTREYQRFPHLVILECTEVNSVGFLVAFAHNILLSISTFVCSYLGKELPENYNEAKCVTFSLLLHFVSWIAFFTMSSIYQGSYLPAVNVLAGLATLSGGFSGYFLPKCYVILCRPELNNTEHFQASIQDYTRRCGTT
T1 sequence (Q925D8 21-858 I706N): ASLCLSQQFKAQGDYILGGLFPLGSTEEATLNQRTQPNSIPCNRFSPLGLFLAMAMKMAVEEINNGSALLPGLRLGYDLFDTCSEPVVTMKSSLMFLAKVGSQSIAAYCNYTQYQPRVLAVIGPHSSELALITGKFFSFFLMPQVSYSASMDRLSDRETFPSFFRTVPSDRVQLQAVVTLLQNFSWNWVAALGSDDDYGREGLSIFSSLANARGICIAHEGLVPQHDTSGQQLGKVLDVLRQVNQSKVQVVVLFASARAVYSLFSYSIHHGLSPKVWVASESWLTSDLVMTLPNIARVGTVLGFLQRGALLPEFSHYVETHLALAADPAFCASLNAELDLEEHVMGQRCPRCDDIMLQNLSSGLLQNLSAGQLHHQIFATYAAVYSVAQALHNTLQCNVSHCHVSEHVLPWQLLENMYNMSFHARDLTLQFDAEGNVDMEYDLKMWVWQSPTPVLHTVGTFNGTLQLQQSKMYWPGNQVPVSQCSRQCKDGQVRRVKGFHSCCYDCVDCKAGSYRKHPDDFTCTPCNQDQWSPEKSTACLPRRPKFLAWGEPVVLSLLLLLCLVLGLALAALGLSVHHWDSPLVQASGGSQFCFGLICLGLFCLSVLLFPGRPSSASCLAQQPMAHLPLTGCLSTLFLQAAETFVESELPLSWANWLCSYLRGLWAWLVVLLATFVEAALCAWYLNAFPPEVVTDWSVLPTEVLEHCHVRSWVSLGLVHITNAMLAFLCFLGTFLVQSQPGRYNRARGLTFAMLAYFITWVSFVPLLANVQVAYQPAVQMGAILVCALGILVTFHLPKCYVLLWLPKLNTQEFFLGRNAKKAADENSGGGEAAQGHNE
Assay: Intracellular calcium ion assay, 293 cells coexpressing G protein α-subunits, T1R1 and T1R3
Format: cell-based
Settings: 293 cells: T1R1 + T1R3 + G protein α-subunits; 0.67 ml of 1 M saccharide solution added to 2 ml cell suspension; FLUO-4 AM
Method: The coexpression vector for the G protein α-subunit α15 and the G protein α16/Z chimeric protein (hereinafter designated as “G protein α-subunits”) obtained in Example 1-3 was gene transferred to 293 cells, RCB 1637, a human embryonic kidney cell line, available from the Riken Bioresource Center, Ibaraki, Japan, by conventional lipofection. The gene transferred cells were suspended in Dulbecco's Modified Eagle's Medium (D-MEM) supplemented with 1 mg/L of “PUROMYCIN”, a trade mane of puromycin commercialized by Edge Biosystems, MD, USA, and 10% (v/v) of fetal calf serum to give a cell density of 2×10^6 cells/ml and cultured in a plastic petri dish for cell culture. […]
The captioned reactivity test was conducted according to a conventional intracellular calcium ion assay: 293 Cells prepared in Example 3, capable of coexpressing the G protein α-subunits and the sweet taste receptor(s), were cultured in a plastic petri dish for cell culture until reaching its confluent phase. […] Two milliliters of the resultant cell suspension was injected into a glass cuvette, commercialized by Hitachi, Ltd., Tokyo, Japan, and analyzed on “HITACHI 650-40”, a fluorescence spectrophotometer commercialized by Hitachi, Ltd., Tokyo, Japan. […]

Row | SMILES | Influx of calcium ion
1 | OC[C@H]1O[C@H](O[C@H]2O[C@H](CO)[C@@H](O)[C@H](O)[C@H]2O)[C@H](O)[C@@H](O)[C@@H]1O [Trehalose] | Positive
2 | OC[C@H]1O[C@@](CO)(O[C@H]2O[C@H](CO)[C@@H](O)[C@H](O)[C@H]2O)[C@@H](O)[C@@H]1O [Sucrose, reference compound] | Negative
